Data taken from ChEMBL document CHEMBL1671719, “Inhibition of antibiotic-resistant Staphylococcus aureus by the broad-spectrum dihydrofolate reductase inhibitor RAB1” (Antimicrob Agents Chemother, 2010).
≈ marks a conversion by molar mass, not a printed value. Where “and” joins values, the source holds several entries; their conditions need not be identical. Equal entries are not always repeated.

Key:
[1] = biological target: Dihydrofolate reductase (Staphylococcus aureus, UniProt P0A017, F99Y); assay: Inhibition of Staphylococcus aureus DHFR F98Y mutant by MTS assay
[2] = biological target: Dihydrofolate reductase (Staphylococcus aureus, UniProt P0A017); assay: Inhibition of Staphylococcus aureus wild type recombinant DHFR by MTS assay
[3] = system: Staphylococcus aureus; assay: Antimicrobial activity against methicillin-resistant Staphylococcus aureus isolate NRS1 by broth microdilution method; type: functional
[4] = system: Staphylococcus aureus; assay: microbe, parasite or virus in culture; conditions: isolate NRS123
[5] = system: Staphylococcus aureus; assay: Antimicrobial activity against vancomycin-resistant Staphylococcus aureus VRS2 by broth microdilution method; type: functional
[6] = system: Staphylococcus aureus; assay: Antimicrobial activity against vancomycin-resistant Staphylococcus aureus VRS1 by broth microdilution method; type: functional
[7] = system: Staphylococcus aureus; assay: Antimicrobial activity against methicillin-resistant Staphylococcus aureus isolate NRS70 by broth microdilution method; type: functional
[8] = system: Staphylococcus aureus; assay: Antimicrobial activity against vancomycin-resistant Staphylococcus aureus VRS3 by broth microdilution method; type: functional
[9] = system: Staphylococcus aureus; assay: microbe, parasite or virus in culture; conditions: isolate NRS71
[10] = system: Brucella abortus; assay: Antimicrobial activity against Brucella abortus 2308 by broth microdilution method; type: functional
[11] = system: Yersinia pestis; assay: Antimicrobial activity against Yersinia pestis CO92 by broth microdilution method; type: functional
[12] = system: Staphylococcus aureus; assay: Ratio of Ki for TMP-resistant Staphylococcus aureus DHFR to Ki for wild type Staphylococcus aureus DHFR
[13] = system: Enterococcus faecalis; assay: Antimicrobial activity against vancomycin-resistant Enterococcus faecalis ATCC 700802 by broth microdilution method; type: functional
[14] = system: Francisella tularensis; assay: Antimicrobial activity against Francisella tularensis Schu4 by broth microdilution method; type: functional
[15] = system: Bacillus anthracis; assay: Antimicrobial activity against Bacillus anthracis Ames by broth microdilution method; type: functional
[16] = system: Staphylococcus aureus; assay: Antimicrobial activity against methicillin-resistant Staphylococcus aureus; type: functional

COc1cc(-c2ccccc2)cc([C@@H](C)C#Cc2c(C)nc(N)nc2N)c1
IC50 [1]: 190 nM | IC50 [2]: 61 nM

Nc1ccnc(N)n1 [DIAMINOPYRIMIDINE]
MIC [3]: 2 µg/mL (≈ 18.2 µM) | MIC [4]: 0.5 µg/mL (≈ 4.54 µM)

GENTAMICIN
MIC [5]: > 16 µg/mL | MIC [3]: > 16 µg/mL | MIC [6]: > 16 µg/mL | MIC [7]: 1 µg/mL | MIC [8]: > 16 µg/mL

CC1(C)S[C@@H]2[C@H](NC(=O)Cc3ccccc3)C(=O)N2[C@H]1C(=O)O [PENICILLIN G]
MIC [5]: > 2 µg/mL | MIC [9]: > 2 µg/mL | MIC [3]: > 8 µg/mL | MIC [4]: > 2 µg/mL | MIC [6]: > 2 µg/mL | MIC [7]: > 2 µg/mL | MIC [8]: > 2 µg/mL

CCCC1c2ccccc2C=NN1C(=O)/C=C/c1cc(Cc2cnc(N)nc2N)cc(O)c1OC (centres undefined)
MIC [5]: 4 µg/mL (≈ 8.46 µM) | MIC [9]: ≤ 0.0625 µg/mL | MIC [10]: 16 µg/mL (≈ 33.9 µM) | MIC [11]: 4 µg/mL (≈ 8.46 µM) | IC50 [1]: 8.8 nM and 22.6 nM | Ki [1]: 0.9 nM | MIC [3]: ≤ 0.0625 µg/mL | MIC [4]: ≤ 0.0625 µg/mL | Ratio IC50 [12]: 0.9 | Ratio Ki [12]: 0.3 | MIC [6]: 8 µg/mL (≈ 16.9 µM) | MIC [13]: 0.03 µg/mL (≈ 0.0635 µM) | MIC [7]: ≤ 0.0625 µg/mL | MIC [14]: 1 µg/mL (≈ 2.12 µM) | MIC [15]: 1 µg/mL (≈ 2.12 µM) | MIC [8]: ≤ 0.125 µg/mL | IC50 [2]: 9.4 nM and 5.2 nM | Ki [2]: 2.8 nM

COc1cc([C@H](C)C#Cc2c(C)nc(N)nc2N)ccc1-c1c(C)cccc1C
IC50 [1]: 190 nM | IC50 [2]: 61 nM

CCC[C@H]1c2ccccc2C=NN1C(=O)/C=C/c1cc(Cc2cnc(N)nc2N)cc(OC)c1OC
Ki [1]: 0.2 nM | Ratio IC50 [12]: 0.6 | Ratio Ki [12]: 0.2 | IC50 [2]: 2.9 nM and 12.5 nM | Ki [2]: 0.9 nM

CCC[C@@H]1C[C@@H](C(=O)N[C@@H]([C@H]2O[C@H](SC)[C@H](O)[C@@H](O)[C@H]2O)[C@H](C)Cl)N(C)C1 [CLINDAMYCIN]
MIC [5]: > 4 µg/mL | MIC [9]: > 4 µg/mL | MIC [4]: 0.12 µg/mL (≈ 0.282 µM) | MIC [6]: > 4 µg/mL | MIC [7]: > 4 µg/mL | MIC [8]: > 4 µg/mL

COc1cc(Cc2cnc(N)nc2N)cc(OC)c1OC [TRIMETHOPRIM]
MIC [5]: > 256 µg/mL | MIC [9]: 2 µg/mL (≈ 6.89 µM) | MIC [10]: 32 µg/mL (≈ 110 µM) | MIC [11]: ≤ 1 µg/mL | MIC [3]: 2 µg/mL (≈ 6.89 µM) | MIC [4]: 2 µg/mL (≈ 6.89 µM) | MIC [6]: > 256 µg/mL | MIC [13]: ≤ 1 µg/mL | MIC [7]: 2 µg/mL (≈ 6.89 µM) | MIC [14]: 16 µg/mL (≈ 55.1 µM) | MIC [15]: > 256 µg/mL | MIC [8]: 2 µg/mL (≈ 6.89 µM)

COc1cc(Cc2cnc(N)nc2N)c2c(c1OC)OC(C1CC1)C=C2 (centres undefined)
MIC [16]: ≤ 0.06 µg/mL

COc1ncc([C@H]2c3ccccc3C=NN2C(=O)/C=C/c2cc(Cc3cnc(N)nc3N)cc(OC)c2OC)cn1
IC50 [1]: 65.4 nM | Ki [1]: 6.5 nM | Ratio IC50 [12]: 5.7 | Ratio Ki [12]: 1.9 | IC50 [2]: 11.5 nM and 3.9 nM | Ki [2]: 3.5 nM

CC[C@H]1OC(=O)[C@H](C)[C@@H](O[C@H]2C[C@@](C)(OC)[C@@H](O)[C@H](C)O2)[C@H](C)[C@@H](O[C@@H]2O[C@H](C)C[C@H](N(C)C)[C@H]2O)[C@](C)(O)C[C@@H](C)C(=O)[C@H](C)[C@@H](O)[C@]1(C)O [ERYTHROMYCIN]
MIC [5]: > 8 µg/mL | MIC [9]: > 8 µg/mL | MIC [4]: 0.5 µg/mL (≈ 0.681 µM) | MIC [6]: > 8 µg/mL | MIC [7]: > 8 µg/mL | MIC [8]: > 8 µg/mL

CC(=O)NC[C@H]1CN(c2ccc(N3CCOCC3)c(F)c2)C(=O)O1 [LINEZOLID]
MIC [5]: 1 µg/mL (≈ 2.96 µM) | MIC [9]: 1 µg/mL (≈ 2.96 µM) | MIC [7]: 1 µg/mL (≈ 2.96 µM)

CN(C)[C@@H]1C(O)=C(C(N)=O)C(=O)[C@@]2(O)C(O)=C3C(=O)c4c(O)cccc4[C@@](C)(O)[C@H]3C[C@@H]12 [TETRACYCLINE]
MIC [3]: 32 µg/mL (≈ 72 µM) | MIC [4]: 32 µg/mL (≈ 72 µM)

CN[C@H](CC(C)C)C(=O)N[C@H]1C(=O)N[C@@H](CC(N)=O)C(=O)N[C@H]2C(=O)N[C@H]3C(=O)N[C@H](C(=O)N[C@H](C(=O)O)c4cc(O)cc(O)c4-c4cc3ccc4O)[C@H](O)c3ccc(c(Cl)c3)Oc3cc2cc(c3O[C@@H]2O[C@H](CO)[C@@H](O)[C@H](O)[C@H]2O[C@H]2C[C@](C)(N)[C@H](O)[C@H](C)O2)Oc2ccc(cc2Cl)[C@H]1O [VANCOMYCIN]
MIC [5]: 64 µg/mL (≈ 44.2 µM) | MIC [3]: 8 µg/mL (≈ 5.52 µM) | MIC [6]: > 256 µg/mL | MIC [8]: > 32 µg/mL

O=C(O)c1cn(C2CC2)c2cc(N3CCNCC3)c(F)cc2c1=O [CIPROFLOXACIN]
MIC [5]: > 16 µg/mL | MIC [9]: > 16 µg/mL | MIC [4]: 0.5 µg/mL (≈ 1.51 µM) | MIC [6]: > 16 µg/mL | MIC [7]: 0.5 µg/mL (≈ 1.51 µM) | MIC [8]: > 16 µg/mL

Cc1onc(-c2ccccc2)c1C(=O)N[C@@H]1C(=O)N2[C@@H]1SC(C)(C)[C@@H]2C(=O)O [OXACILLIN]
MIC [5]: > 16 µg/mL | MIC [9]: > 16 µg/mL | MIC [3]: > 32 µg/mL | MIC [4]: > 16 µg/mL | MIC [6]: > 16 µg/mL | MIC [7]: > 16 µg/mL | MIC [8]: > 16 µg/mL
